Experimental data reported in patent US11304945B2, “Pharmaceutical composition and method for preparing same” (Jiangsu Hengrui Medicine Co., Ltd., priority 2017, dated 2022).

Experiment: Pharmacokinetics (PK) study in animals
Format: in vivo
Conditions: both sexes, dog; beagle dogs, oral, 30 mg/kg, plasma
Protocol: 12 beagle dogs were grouped into two groups (6 beagle dogs per group, half male and half female). The beagle dogs were fasted for more than 12 h before the experiment, and food was provided 4 h after the drug administration on the day of the experiment. Water was not deprived during the experiment. The crystal form of compound A and the solid dispersion of compound A, respectively (the ratio of compound A to hydroxypropyl methylcellulose acetate succinate was 1:1, according to the formulation of Experimental Example 3), were administered orally to the two groups of animals with an administration dose of 30 mg/kg. 0.6 mL of blood was taken from climb veins before administration and 0.25, 0.5, 1.0, 2.0, 4.0, 6.0, 8.0, 12, 24 and 72 h after administration. The blood was stored in an ethylenediaminetetraacetic acid (EDTA) anticoagulant tube, and centrifuged for 10 minutes at 3500 rpm (4° C.) to separate the blood plasma. The plasma was stored at −70° C.
The concentration of API in the blood plasma and the administrated solution was determined by liquid chromatography-tandem mass spectrometry (LC/MS/MS). The pharmacokinetic parameters of beagle dogs after drug administration were calculated with the resulting plasma concentration using the non-compartmental model of Phoenix WinNonlin 6.4 software.

Question: What does the source list for `CC#CC(=O)N1CC[C@@H](n2cc(-c3ccc(Oc4c(F)cccc4F)cc3)c3c(N)n[nH]c(=O)c32)C1` [Crystal form of compound A, (R)-4-amino-1-(1-(but-2-ynoyl)pyrrolidin-3-yl)-3-(4-(2,6-difluorophenoxy)phenyl)-1,6-dihydro-7H-pyrrolo[2,3-d]pyridazin-7-one]?
Answer: AUC(0-inf): 3870 ± 3170 ng·h/mL; Cmax: 630 ± 530 ng/mL; half-life: 3.02 ± 0.65 h
